The experiment has as its target T1, cPLA2 (Homo sapiens, UniProt P47712).
T1 sequence (P47712 1-749): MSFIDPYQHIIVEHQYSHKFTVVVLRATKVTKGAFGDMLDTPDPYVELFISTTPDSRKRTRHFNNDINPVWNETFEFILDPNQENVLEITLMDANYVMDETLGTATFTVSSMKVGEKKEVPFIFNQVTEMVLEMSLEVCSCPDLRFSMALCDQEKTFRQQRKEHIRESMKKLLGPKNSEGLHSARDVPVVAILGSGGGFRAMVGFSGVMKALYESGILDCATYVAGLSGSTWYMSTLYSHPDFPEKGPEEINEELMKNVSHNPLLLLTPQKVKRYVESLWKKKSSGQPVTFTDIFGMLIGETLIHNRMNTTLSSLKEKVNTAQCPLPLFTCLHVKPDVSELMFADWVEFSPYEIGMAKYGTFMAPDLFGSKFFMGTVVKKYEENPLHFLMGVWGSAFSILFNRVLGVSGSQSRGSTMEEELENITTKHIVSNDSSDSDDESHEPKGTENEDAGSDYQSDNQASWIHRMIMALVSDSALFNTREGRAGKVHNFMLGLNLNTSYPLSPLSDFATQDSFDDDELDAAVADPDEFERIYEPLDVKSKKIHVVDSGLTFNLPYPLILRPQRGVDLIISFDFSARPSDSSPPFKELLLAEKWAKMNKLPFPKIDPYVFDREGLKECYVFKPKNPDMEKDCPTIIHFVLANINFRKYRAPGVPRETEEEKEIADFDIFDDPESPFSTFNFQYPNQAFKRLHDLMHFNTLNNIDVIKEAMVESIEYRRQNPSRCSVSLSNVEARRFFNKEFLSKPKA
Nature of the experiment: Coumarine Assay. The class given is biochemical. The settings on record: 60 μM 7-hydroxycoumarinyl 6-heptenoate substrate, 4 μg cPLA2, pH 7.5, fluorescence ex 360 nm / em 460 nm; read-out: Coumarin IC50.

Method: Inhibitors were mixed with 200 μL assay buffer (80 mM Heped, pH 7.5, 1 mM EDTA) containing 60 μM 7-hydroxycoumarinyl 6-heptenoate. The reaction was initiated by adding 4 μg cPLA2 in 50 μL assay buffer. Hydrolysis of the 7-hydroxycounarimyl 6-heptenoate ester was monitored in a fluorometer by exciting at 360 nm and monitoring emission at 460 nm. Enzyme activity is proportional to the increase in emission at 460 nm per minute. In the presence of a cPLA2 inhibitor, the rate of increase is less.

In the case of `Cn1cnc(S(=O)(=O)NCCc2c(CCOc3ccc(C(=O)O)cc3)c3cc(Cl)ccc3n2C(c2ccccc2)c2ccccc2)c1` [Example 4, 4-{2-[1-Benzhydryl-5-chloro-2-(2{[(1-methyl-1H-imidazol-4-yl)sulfonyl]amino}ethyl)-1H-indol-3-yl]ethoxy}benzoic acid], the concentration for half-maximal inhibition (IC50) (as a rule, the concentration needed to halve the response being measured) was found to be 56000 nM.

For `Cc1cnn(CCS(=O)(=O)NCCc2c(CCOc3ccc(C(=O)O)cc3)c3cc(Cl)ccc3n2C(c2ccccc2)c2ccccc2)c1` [Example 95, 4-(2-{1-benzhydryl-5-chloro-2-[2-({[2-(4-methyl-1H-pyrazol-1-yl)ethyl]sulfonyl}amino)ethyl]-1H-indol-3-yl}ethoxy)benzoic acid], the IC50 was found to be 850 nM.

Turning to `O=C(O)c1ccc(OCCc2c(CCNS(=O)(=O)CCNC(=O)c3ccccc3C(=O)O)n(C(c3ccccc3)c3ccccc3)c3ccc(Cl)cc23)cc1` [Example 48, 2-{[(2-{[(2-{1-benzhydryl-3-[2-(4-carboxyphenoxy)ethyl]-5-chloro-1H-indol-2-yl}ethyl)amino]sulfonyl}ethyl)amino]carbonyl}benzoic acid], the half-maximal inhibitory concentration (IC50) came to 2350 nM.

Turning to `O=C(O)c1ccc(OCCc2c(CCNS(=O)(=O)Cc3ccccc3)n(C(c3ccccc3)c3ccccc3)c3ccc(Cl)cc23)cc1` [Example 1, 4-[2-(1-Benzhydryl-2-{2[(benzylsulfonyl)amino]ethyl}-5-chloro-1H-indol-3-yl)ethoxyl]benzoic acid], the IC50 turned out to be 420 nM.

`O=C(O)c1ccc(CNCc2c(CCNS(=O)(=O)Cc3ccccc3)n(C(c3ccccc3)c3ccccc3)c3ccc(Cl)cc23)cc1` [Example 134, 4-({[(1-benzhydryl-2-{2-[(benzylsulfonyl)amino]ethyl}-5-chloro-1H-indol-3-yl)methyl]amino}methyl)benzoic acid]: the IC50 was over 1000 nM.

As to `CS(=O)(=O)c1ccc(CS(=O)(=O)NCCc2c(CCOc3ccc(C(=O)O)cc3)c3cc(Cl)ccc3n2C(c2ccccc2)c2ccccc2)cc1` [Example 40, 4-(2-{1-Benzhydryl-5-chloro-2-[2-(4-methanesulfonyl-phenylmethanesulfonylamino)-ethyl]-1H-indol-3-yl}-ethoxy)-benzoic acid], the IC50 is 730 nM.

On to `CC1CCC(C)N1CCS(=O)(=O)NCCc1c(CCOc2ccc(C(=O)O)cc2)c2cc(Cl)ccc2n1C(c1ccccc1)c1ccccc1` (stereo not drawn) [Example 115, 4-[2-(1-Benzhydryl-5-chloro-2-{2-[2-(2,5-dimethyl-pyrrolidin-1-yl)-ethanesulfonylamino]-ethyl}-1H-indol-3-yl)-ethoxy]-benzoic acid], for which the IC50 worked out at 900 nM.

For the compound `O=C(O)c1ccc(OCCc2c(CCNS(=O)(=O)Cc3cc(Cl)cc(Cl)c3)n(C(c3ccccc3)c3ccccc3)c3cc(Cl)ccc23)cc1` [Example 107, 4-[2-{1-Benzhydryl-6-chloro-2-[2-(3,5-dichloro-phenylmethanesulfonylamino)-ethyl]-1H-indol-3-yl}-ethoxy)-benzoic acid], the IC50 turned out to be 330 nM.

On to `Nc1ccccc1CS(=O)(=O)NCCc1c(CCCc2ccc(C(=O)O)cc2)c2cc(Cl)ccc2n1C(c1ccccc1)c1ccccc1` [Example 69, 4-{3-[2-(2-{[(2-aminobenzyl)sulfonyl]amino}ethyl)-1-benzhydryl-5-chloro-1H-indol-3-yl]propyl}benzoic acid], for which the IC50 worked out at 150 nM.

On to `O=C(O)c1ccc(OCCc2c(CCNS(=O)(=O)Cc3ccncc3)n(C(c3ccccc3)c3ccccc3)c3ccc(Cl)cc23)cc1` [Example 50], for which the IC50 came to 690 nM.

For `O=C(O)c1ccc(CCCc2c(CCNS(=O)(=O)Cc3ccccc3)n(C(c3ccccc3)c3ccccc3)c3ccccc23)cc1` [Example 128, 4-[3-(1-benzhydryl-2-{2-[(benzylsulfonyl)amino]ethyl}-1H-indol-3-yl)propyl]benzoic acid], the IC50 was 320 nM.

As to `N#Cc1cccc(CS(=O)(=O)NCCc2c(CCOc3ccc(C(=O)O)cc3)c3cc(Cl)ccc3n2C(c2ccccc2)c2ccccc2)c1` [Example 36, 4-{2-[1-Benzhydryl-5-chloro-2-(2-{[(3-cyanobenzyl)sulfonyl]amino}ethyl)-1H-indol-3-yl]ethoxy}benzoic acid], the IC50 came out at 500 nM.

On to `O=C(O)CCc1ccc(S(=O)(=O)CCc2c(CCNS(=O)(=O)Cc3c(F)cccc3F)n(C(c3ccccc3)c3ccccc3)c3ccc(Cl)cc23)cc1` [Example 131, 3-[4-({2-[1-benzhydryl-5-chloro-2-(2-{[(2,6-difluorobenzyl)sulfonyl]amino}ethyl)-1H-indol-3-yl]ethyl}sulfonyl)phenyl]propanoic acid], for which the IC50 stood at 200 nM.

Take `O=C(O)c1ccc(CCCc2c(CCNS(=O)(=O)Cc3ccc(C(F)(F)F)cc3)n(C(c3ccccc3)c3ccccc3)c3ccc(Cl)cc23)cc1` [Example 58, 4-(3-{1-benzhydryl-5-chloro-2-[2-({[4-(trifluoromethyl)benzyl]sulfonyl}amino)ethyl]-1H-indol-3-yl}propyl)benzoic acid]: the IC50 is 360 nM.

For the compound `Cc1cc(C)cc(CS(=O)(=O)NCCc2c(CCOc3ccc(C(=O)O)cc3)c3cc(Cl)ccc3n2C(c2ccccc2)c2ccccc2)c1` [Example 78, 4-{2-[1-Benzhydryl-5-chloro-2-(2-{[(3,5-dimethylbenzyl)sulfonyl]amino}ethyl)-1H-indol-3-yl]ethoxy)benzoic acid], the IC50 was found to be 340 nM.

Turning to `O=C(O)c1ccc(CCCc2c(CCNS(=O)(=O)Cc3cc(Cl)cc(Cl)c3)n(C(c3ccccc3)c3ccccc3)c3ccc(Cl)cc23)cc1` [Example 43, 4-{3-[1-benzhydryl-5-chloro-2-(2-{[(3,5-dichlorobenzyl)sulfonyl]amino}ethyl)-1H-indol-3-yl]propyl}benzoic acid], the IC50 came out at 200 nM.

For `Cc1cccc(C)c1SCS(=O)(=O)NCCc1c(CCOc2ccc(C(=O)O)cc2)c2cc(Cl)ccc2n1C(c1ccccc1)c1ccccc1` [Example 82], the IC50 was determined as 500 nM.

In the case of “4-{2-[1-Benzhydryl-5-chloro-2-(2-{[(2-cyanobenzyl)sulfonyl]amino}ethyl)-1H-indol-3-yl]ethoxy)benzoic acid [Example 35]”, the IC50 was determined as 330 nM.

As for `COc1ccccc1SCS(=O)(=O)NCCc1c(CCOc2ccc(C(=O)O)cc2)c2cc(Cl)ccc2n1C(c1ccccc1)c1ccccc1` [Example 83], the IC50 was determined as 450 nM.

Turning to `O=C(O)c1ccc(OCCc2c(CCNS(=O)(=O)C3CC3)n(C(c3ccccc3)c3ccccc3)c3ccc(Cl)cc23)cc1` [Example 23, 4-[2-(1-benzhydryl-5-chloro-2-{2-[(cyclopropylsulfonyl)amino]ethyl}-1H-indol-3-yl)ethoxy]benzoic acid], the IC50 is 1500 nM.

`O=C(O)c1ccc(OCCc2c(CCNS(=O)(=O)c3cnc(Cl)c(Br)c3)n(C(c3ccccc3)c3ccccc3)c3ccc(Cl)cc23)cc1` [Example 5, 4-{2-[1-Benzhydryl-2-(2-{[(5-bromo6-chloro-3-pyridinyl)sulfonyl]amino}ethyl)-5-chloro-1H-indol-3-yl]ethoxy}benzoic acid]: the IC50 amounted to 3000 nM.

Turning to `O=C(O)c1ccc(OCCc2c(CCNS(=O)(=O)Cc3ccc([N+](=O)[O-])cc3)n(C(c3ccccc3)c3ccccc3)c3ccc(Cl)cc23)cc1` [Example 54, 4-{2-[1-benzhydryl-5-chloro-2-(2-{[(4-nitrobenzyl)sulfonyl]amino}ethyl)-1H-indol-3-yl]ethoxy}benzoic acid], the IC50 is 310 nM.

As for `O=C(O)c1ccc(OCCc2c(CCNS(=O)(=O)Cc3ccc(OC(F)(F)F)cc3)n(C(c3ccccc3)c3ccccc3)c3ccc(Cl)cc23)cc1` [Example 71, 4-{2-[1-Benzhydryl-5-chloro-2-(2-{[(4-trifluorometoxybenzyl)sulfonyl]amino}ethyl)-1H-indol-3-yl]ethoxy}benzoic acid], the IC50 amounted to 450 nM.

`O=C(O)c1ccc(OCCc2c(CCNS(=O)(=O)c3ccc4ccccc4c3)n(C(c3ccccc3)c3ccccc3)c3ccc(Cl)cc23)cc1` [Example 26, 4-[2-(1-benzhydryl-5-chloro-2-{2-[(2-naphthylsulfonyl)amino]ethyl}-1H-indol-3-yl)ethoxy]benzoic acid]: the IC50 worked out at 1100 nM.

Turning to `O=C(O)c1ccc(OCCc2c(CCNS(=O)(=O)C(F)(F)F)n(C(c3ccccc3)c3ccccc3)c3ccc(Cl)cc23)cc1` [Example 22, 4-{2-[1-benzhydryl-5-chloro-2-(2-{[(trifluoromethyl)sulfonyl]amino}ethyl)-1H-indol-3-yl]ethoxy}benzoic acid], the IC50 turned out to be 1800 nM.

Turning to `O=C(O)c1ccc(CCCc2c(CCNS(=O)(=O)Cc3c(F)cccc3F)n(C(c3ccccc3)c3ccccc3)c3ccc(Cl)cc23)cc1` [Example 126, 4-{3-[1-benzhydryl-5-chloro-2-{2-([(2,6-difluorobenzyl)sulfonyl]amino}ethyl)-1H-indol-3-yl]propyl}benzoic acid], the IC50 turned out to be 200 nM.

For the compound `Cc1cccc(C)c1CS(=O)(=O)NCCc1c(CCS(=O)(=O)c2ccc(C(=O)O)cc2)c2cc(Cl)ccc2n1C(c1ccccc1)c1ccccc1` [Example 141, 4-({2-[1-benzhydryl-5-chloro-2-(2-{[(2,6-dimethylbenzyl)sulfonyl]amino}ethyl) 1H-indol-3-yl]ethyl}sulfonyl)benzoic acid], the IC50 came out at 170 nM.

Values taken from US6635771B2, “N-benzhydryl indole compounds” (Wyeth, priority 2001, dated 2003).
